Laboratory results published in patent US20150376216A1, “SUGAR-ANALOG PHOSPHORUS-CONTAINING HETEROCYCLES HAVING AN ANTI-METASTATIC ACTIVITY” (CENTRE NATIONAL DE LA RECHERCHE SCIENTIRIQUE, priority 2013, published 2015).
Read-outs that look alike come from different tables or passages of the source. One block for each molecule: values may come before it.

Assays:
MDAMB-435 melanoma line = assay: MTT antiproliferative test, MDAMB-435; assay type: cell-based; details: Homo sapiens, MDA-MB-435, 72 hours, read-out: IC50, inhibition of proliferation
Experimental: (§1) The lines MDAMB-435 and A431 are seeded at a density of 3000 cells per well in 96-well plates. After 24 hours, compounds 4.2a and 5.6d resuspended in 100% DMSO are added at concentrations of 0-0.001-0.010-0.1-1-10-50 μM for a final constant amount of DMSO of 0.3%. The cultures are maintained for a further 72 hours and an MTT colorimetric test is then performed. 100 μl of a solution of MTT at 5 mg/ml in PBS are added to the culture medium, which is left to incubate for 3 hours. The culture medium is removed and the cells are lyzed by adding 100 μL of a 4 mM HCl solvent, 0.1% Nondet P-40 (NP40) in isopropanol. The yellow tetrazolium MTT salt (3-(4,5-dimethylthiazol-2-yl)-2,5-diphenyl tetrazolium bromide), when it is reduced by the mitochondrial succinate dehydrogenase of active live cells, forms a blue-violet formazan product. The medium then changes from yellow to blue-violet. The intensity of this coloration at 590 nm is proportional to the number of live cells present during the test and gives an indication of the metabolic activity of these cells.
(§2) Table 1 gives the concentration values for 50% inhibition of proliferation (IC50) for compounds 4.2a and 5.6d on lines derived from bowel cancer (CaCo2), skin cancer (A431, MDAMB-435, B16F10), breast cancer (MDAMB-431), […] (HuH7), prostate cancer (DU145) and brain cancer (SNB75, Gli4, Gli7).

Gli7 = assay: MTT antiproliferative test, Gli7; assay type: cell-based; details: Homo sapiens, read-out: IC50, inhibition of proliferation
Experimental: (§3) Several cancer cell lines were used for the in vivo or in vitro biological tests: • SNB75 is a human glioblastoma line derived from a primary culture, i.e. derived from a primary malignant cancer tumor. It forms part of the panel of 59 cancer lines referenced by the NCI. Its Cosmic reference number published by the Welcome Trust Sanger Institute is 905982. This line was supplied by a person (M.D. Ph.D of the department of “Radiation Oncology”, Stanford University Medical Center). It was cultured in Ham's F-12 and DMEM (1/1) supplemented with 10% fetal bovine serum. The experiments were performed with cells in the exponential growth phase. • Gli4 (or Gli4F11) and Gli7 are cultures of cancer strain cells derived from human glioblastomas (primary cultures). These lines are CD133^+, CD15^+ which are multipotent and tumorigenic in animals. They were established by J. P. Hugnot (INM INSERM U-1051 Eq. 4), and described in Guichet, P. O. et al, Glia 2013, 61(2), 225-239; • C6 is a rat glioblastoma line. It is referenced in the ATCC under the reference CCL-107. • MDAMB-435 is a melanoma line derived from a mammary melanoma. It forms part of the panel of 59 cancer lines referenced by the NCI. It is referenced at the ATCC under the reference HTB-129. It was cultured in Ham's F-12 and DMEM (1/1) supplemented with 10% fetal bovine serum. […]

GLi4 = assay: MTT antiproliferative test, Gli4; assay type: cell-based; details: Homo sapiens, read-out: IC50, inhibition of proliferation
Experimental: as §3

DU145 = assay: MTT antiproliferative test, DU145; assay type: cell-based; details: Homo sapiens, DU-145, read-out: IC50, inhibition of proliferation
Experimental: as §1, §2

A431 line = assay: MTT antiproliferative test, A431; assay type: cell-based, human; details: A-431, read-out: IC50, inhibition of proliferation
Experimental: as §1, §2

MDAMB-231 = assay: MTT antiproliferative test, MDAMB-231; assay type: cell-based; details: Homo sapiens, MDA-MB-231, read-out: IC50, inhibition of proliferation
Experimental: as §1, §2

B16F10 = assay: MTT antiproliferative test, B16F10; assay type: cell-based; details: Mus musculus, B16-F10, read-out: IC50, inhibition of proliferation
Experimental: as §1, §2

HuH7 = assay: MTT antiproliferative test, HuH7; assay type: cell-based; details: Homo sapiens, Huh-7, read-out: IC50, inhibition of proliferation
Experimental: as §1, §2

SNB75 glioblastoma line = assay: MTT antiproliferative test, SNB75; assay type: cell-based; details: Homo sapiens, SNB-75, read-out: IC50, inhibition of proliferation
Experimental: as §3

C6 glioblastoma line = assay: MTT antiproliferative test, C6; assay type: cell-based; details: Rattus norvegicus, read-out: IC50, inhibition of proliferation
Experimental: as §3

[1] = test system: epidermoid cancer line A431; assay: Boyden chamber migration test, A431; assay type: cell-based, human; details: for Ki: 24 hours, read-out: Inhibition constant Ki, migration
Experimental: (§4) The effects of compounds 3.48a, 4.2a and 5.6d on the migration of cancer cells (human glioblastoma line SNB75 or primary culture of human glioblastoma Gli4F1, on the one hand, and MDAMB 435 and A431 on the other hand), were determined by performing a standard migration test in a Boyden chamber (treatment of the cells for 24 hours).
(§5) For this test, the compounds were dissolved in vitro and used in culture in 0.3% of DMSO. The interior of the inserts was covered with the extracellular matrix protein studied (laminin-1, vitronectin or fibronectin). The cells pretreated at various concentrations and untreated (controls) were deposited in the inserts covered with said protein at a rate of 50 000 cells/500 μl/insert in a medium containing 0.1% of BSA (bovine serum albumin).
(§6) 500 μl of medium containing 10% fetal calf serum were then placed in each well of a Companion plate so as to allow the formation of a chemotactic gradient across the porous membrane. After 24 hours of migration in the incubator at 37° C., the supernatent was removed and the inserts rinsed with PBS on each face. The cells were counted with a microscope (Zeiss Axiophot, magnification ×200). This gives a percentage of migration relative to the untreated cells.
(§7) Table 2 below gives, for compound 3.48a, the values for the inhibition constants (Ki) for the migration of a human GBM line (SNB75), of GBM stem cell lines (Gli4, Gli7) and of a breast cancer line MDAMB231, in a Boyden chamber, on various extracellular matrix protein supports. Tables 3 and 4 below give, for compounds 4.2a and 5.6d, the values of the inhibition constants (Ki) for the migration of a melanoma line (MDAMB-435) or of an epidermoid cancer line (A431), in a Boyden chamber, on various extracellular matrix protein supports. The inhibitory effect depends on the line and the stem cells used, but also on the extracellular matrix protein support used.

CaCo2 = assay: MTT antiproliferative test, CaCo2; assay type: cell-based; details: Homo sapiens, Caco-2, read-out: IC50, inhibition of proliferation
Experimental: as §1, §2

SNB75 human GBM line = assay: Boyden chamber migration test, SNB75; assay type: cell-based; details: for Ki: SNB75, 24 hours, read-out: Inhibition constant Ki, migration
Experimental: as §4, §5, §6, §7

GBM line C6 = assay: Boyden chamber migration test, C6; assay type: cell-based, rat; details: various extracellular matrix substrates
[2] = Solubility / formulation behaviour; assay type: physicochemical
Experimental: The following two formulations are particularly suited to compounds 3.48a and 4.2a and allow their in vivo administration, at concentrations of about 20-100 mg/kg, intravenously: […]

Acute in vivo toxicity = details: healthy mice; 50, 25, 10, 5 and 1 mg/kg; maximum dose 50 mg/kg
Experimental: Studies of the acute toxicity of compounds 3.48a and 4.2a were performed on healthy mice for a concentration range of 50, 25, 10, 5 and 1 mg/kg.

Gli4 cells = assay: Gli4 intracranial model; assay type: in vivo, mice
Experimental: 2×10^5 Gli4 cells were injected into a group of mice (right striatal injection, injection coordinates: bregma 0 L-L: L: −1.5 mm P: −3.5-2.5). The mice were immediately treated for four weeks at a rate of three injections at 10 mg/kg of compound 3.48a per week (formulation 1, group B) or using 100 μl of NaCl according to the same treatment protocol (group A) and sacrificed after ten weeks.
In the group of control mice (group A), dispersed Gli4 cells are observed, which migrated along the corpus callosum and passed into the other hemisphere. […] This migration reflects migration along the white matter, as observed in human glioblastoma multiformes (dispersion as an intra-fascicular growth along the white matter).

Gli4 GBM stem cells = assay: Boyden chamber migration test, Gli4; assay type: cell-based, human; details: 24 hours, read-out: Inhibition constant Ki, migration
Experimental: as §4, §5, §6, §7

Gli7 GBM stem cells = assay: Boyden chamber migration test, Gli7; assay type: cell-based, human; details: 24 hours, read-out: Inhibition constant Ki, migration
Experimental: as §4, §5, §6, §7

SNB75 cells = assay: SNB75 subcutaneous model; assay type: in vivo, mice
Experimental: Nude female mice 4-5 weeks old with an average weight of […], supplied by the R. Janvier breeding center, were used. The mice were kept in a pathogen-free environment and with food and water present ad libitum. The experiments were commenced after one week of acclimatizing the mice to their new environment.
A suspension of 5×10^6 SNB75 cells in 100 μl of sterile PBS (phosphate-buffered saline, provided by Fisher) was injected into each mouse (subcutaneous administration without anesthesia). Once the mice presented tumors with volumes of between […], groups were formed so that each of them contained an equivalent number of large, medium and small tumors. The protocol was conducted with five groups of seven mice. The five groups of mice were treated using one of the five formulations described below:
Group A: Treatment by injection of 100 μl of NaCl (control N° 1).
Group B: Treatment with compound 3.48a at a rate of 10 mg/kg with volumes of 100 to 150 μl of formulation 2 according to the weight of the mice.
Group C: Treatment with compound 3.48a at a rate of 5 mg/kg with volumes of 100 to 150 μl of formulation 2 according to the weight of the mice.
Group D: Treatment with temozolomide at a rate of 20 mg/kg with volumes of 100 to 150 μl according to the weight of the mice. Temozolomide is a comparative anticancer active principle sold under the name Temodal by the laboratory Schering Plough. It is indicated for treating glioblastoma multiforme.
Group E: Treatment by injection of 100 to 150 μl according to the weight of the mice of formulation 2 not containing compound 3.48a (control N° 2).
Each batch was treated by intravenous injection into the caudal vein of 100 to 150 μl of solution (precision syringe and G25X1 needle ultrafine wall, VWR). Three injections per week for four weeks were performed. The mice were weighed at each injection. The sizes of the tumors were measured twice a week for a period of four weeks. The mice were sacrificed after four weeks and the tumors and organs (liver, kidney, spleen, brain, intestine, heart, muscles) were removed. A histological analysis was performed on these organs.

[3] = 10 and 5 mg/kg i.v. (groups B and C), three injections per week for four weeks

- IC50 (MDAMB-435 melanoma line): 9610 nM
- IC50 (DU145): 31200 nM
- IC50 (A431 line; A431 line (human epidermoid cancer)): 100 nM
- IC50 (A431 line; Homo sapiens, A431, 72 hours, MTT): 130 nM
- IC50 (MDAMB-231): 23200 nM
- IC50 (B16F10): 14900 nM
- IC50 (HuH7): 22000 nM
- IC50 (SNB75 glioblastoma line): 650 nM
- IC50 (C6 glioblastoma line): 650 nM
- IC50 ([1]; Homo sapiens, A-431, on fibronectin or vitronectin, read-out: Concentration for a 50% decrease in migration of the cancer cells): 10 to 100 nM
- Ki ([1]; support Fibronectin): 8 nM
- Ki ([1]; support Laminin): 13 nM
- Ki ([1]; support Vitronectin): 20 nM
- IC50 (CaCo2): 36000 nM
Compound: CC(=O)N[C@@H]1[C@H]2OC(C)(C)O[C@H]2[C@@H]([C@H]2COC(C)(C)O2)O[P@@]1(=O)c1ccccc1 [Compound 5.6d]
- IC50 (Gli7): 500 nM
- IC50 (GLi4): 540 nM

Compound: O=[P@@]1(c2ccccc2)O[C@H](COCc2ccccc2)[C@@H](OCc2ccccc2)[C@H](OCc2ccccc2)[C@H]1O [Compound 3.48a, 4,5-bis-benzyloxy-6-benzyloxymethyl-2-phenyl-2-oxo-2λ^5-[1,2]oxaphosphinan-3-ol]
- IC50 (SNB75 human GBM line; Homo sapiens, SNB-75, SNB75 line, on fibronectin or vitronectin, read-out: Concentration for a 50% decrease in migration of the cancer cells): 1 to 100 nM
- Ki (SNB75 human GBM line; support Fibronectin): 27 nM
- Ki (SNB75 human GBM line; support Laminin): 23000 nM
- Ki (SNB75 human GBM line; support Vitronectin): 87 nM
- Inhibition of cell migration (GBM line C6): inhibits the cell migration
- Complexation in cyclodextrins [2]: non-complexible in cyclodextrins
- Solubility ([2]; water, water-soluble solvents): insoluble in water, in numerous water-soluble solvents
- Mortality, acute toxicity (Acute in vivo toxicity): No mortality was observed
- Cell migration in brain during treatment (Gli4 cells; 10 mg/kg, three injections per week, four-week treatment (formulation 1)): made it possible to inhibit cell migration
- Cell growth and migration after stopping the treatment (Gli4 cells; final six weeks after the four-week treatment at 10 mg/kg): resumption of the growth and migration of the cells was observed
- Ki (Gli4 GBM stem cells; support Fibronectin): 1 nM
- Ki (Gli4 GBM stem cells; support Laminin): 11 nM
- Ki (Gli4 GBM stem cells; support Vitronectin): 5 nM
- Ki (Gli7 GBM stem cells; support Fibronectin): 37 nM
- Ki (Gli7 GBM stem cells; support Laminin): 310 nM
- Ki (Gli7 GBM stem cells; support Vitronectin): 371 nM
- Mortality (SNB75 cells; [3]): none of the mice died
- Weight loss (SNB75 cells; [3]): no weight loss was observed
- Growth of the primary tumor (SNB75 cells; 10 and 5 mg/kg i.v. (groups B and C), three injections per week, after four weeks, vs control groups): a very great reduction in the growth of the primary tumor
- Development of metastases (SNB75 cells; 10 and 5 mg/kg i.v. (groups B and C), controls all developed metastases in liver and intestine): None of the mice treated with compound 3.48a (groups B and C) developed metastases
- Metastases in the liver (FIG. 1A) (SNB75 cells; a mouse from group B (10 mg/kg), eight weeks after implantation): absence of metastases in the liver

Compound: Cn1nnc2c(C(N)=O)ncn2c1=O [temozolomide, reference compound]
- Weight loss (SNB75 cells; 20 mg/kg i.v. (group D), remaining four mice): substantial weight losses
- Mortality (SNB75 cells; 20 mg/kg i.v. (group D), seven mice): three of the seven mice died after the third injection
- Lethality at higher dose (SNB75 cells; dose of 40 mg/kg): leads to the death of the mice before the end of the experimentation period
